Numbered stars: 1 amine (or outer) side, 2 acyl side, 3 side chain; on linkers, the order of the positions; unused ones are H or OH. Side chains are listed from the residue outwards. Ends that are not written are not given here. * marks the point of attachment. γGlu = O=C(O)[C@H](CCC(=O)[*:2])N[*:1]; Palmitoyl = CCCCCCCCCCCCCCCC(=O)*
Assays:
[1] = system: C57BL/6J mice; test: Acute food intake in C57BL/6J mice; assay type: in vivo; conditions: for Total food intake (g/animal): Day 0: 0-[…] (lights off), mean ± SEM
Experimental: The C57BL/6J mice arrived 7 days prior to the initiation of the study. During these days, animals were handled daily to accustom them to the experimental paradigm. At Day −1, the mice were randomised according to body weight to participate in one of following drug treatment groups (n=6-8 in each group): Group 1: vehicle. […] Group 3-5: SEQ ID NO 3; 3.0; 1.0; 0.3 mg/kg. Group 6-8: SEQ ID NO 4; 3.0; 1.0; 0.3 mg/kg. Group 9-11: SEQ ID NO 5; 3.0; 1.0; 0.3 mg/kg. Group 12-14: SEQ ID NO 6; 3.0; 1.0; 0.3 mg/kg. Group 15-17: SEQ ID NO 7; 3.0; 1.0; 0.3 mg/kg. Three days prior to initiation of dosing, all animals were handled daily and accustomed to the experimental conditions by subcutaneous mock injections (i.e. nipping the skin of the back). Baseline food intake was monitored four days prior to the study. Mice were randomized according to body weight on Day −1. Animals were subjected to two separate injections. First acute dose was administered prior to lights out at Day 0 and food intake was monitored 24 hours post dosing. On Day 3, mice were re-randomised into new treatment groups and dosed prior to lights out. Food intake was monitored 24 hours post dosing. Body weight was measured daily from Day −5 and throughout the study. The study was terminated on Day 5. […] Dosing took place prior to lights out in the afternoon (between 13.30 and 14.00). Doses were administered subcutaneously (dose volume 5 ml/kg). Food intake data was collected using the HM-2 system, an online computerized feeding system using digital weighing cells. Food intake and body weight were measured from Day −7 and throughout the study. […]

[2] = system: C57BL/6J mice; test: GLP1R-GLP2R dual agonist compound study: oral glucose tolerance test; assay type: in vivo
Experimental: On day 7, an oral glucose tolerance test (OGTT) was performed. Animals were mildly fasted as all food was removed 4 hours prior to the oral glucose load. Vehicle (SC) and compounds were administered subcutaneously (SC) 2 hours prior to the OGTT. At t=0 mice received an oral glucose load (2 g/kg; 4 ml/kg; 500 mg/ml, Fresenius Kabi, Sweden). Glucose was given as gavage via a gastrically-placed tube connected to a syringe ensuring accurate dosing. Blood glucose was measured from tail vein blood before glucose (at t=−120 and 0 min, baseline) and after glucose administration at t=15, 30, 60 and 120 min. Blood samples (tail vein) was collected into 10 μl heparinized glass capillary tubes and immediately suspended in buffer (0.5 ml of glucose/lactate system solution (EKF-diagnostics, Germany) and analyzed for glucose on the test day using a BIOSEN c-Line glucose meter (EKF-diagnostics, Germany) according to manufacturer's instructions. Results from the OGTT are listed below in Table 11.

[3] = system: C57BL/6J mice; test: GLP1R-GLP2R dual agonist compound study: cumulative food intake; assay type: in vivo
Excerpt: Forty (40, n=10, 4 groups) male C57BL/6J mice obtained from Taconic, Denmark, were used. At the time of the experiment, the mice had reached an age of 9-10 weeks. The mice were acclimatized for one week in their new environment and offered regular chow diet (Altromin 1324, Brogaarden A/S, Denmark) and domestic quality tap water. Animals were housed two per cage during the study, in a light-, temperature-, and humidity-controlled room (12-hour light: 12-hour dark cycle, lights on/off at 4 AM/4 PM hour; 22±1° C.; 50±10% relative humidity). […] Animals were uniquely identified with implantable microchips (Pet ID Microchip, E-vet) in all mice upon arrival. Animals were identified using the WS-2 weight station (MBrose ApS, Faaborg, Denmark) connected to a laptop running the HM02Lab software (Ellegaard Systems, Faaborg, Denmark). The HM02Lab software matches the body weight with ID and calculates the dose directly based on the body weight. All mice were handled for 3 days prior to the experiment to acclimatize the animals to handling and injections.

[4] = system: C57BL/6J mice; test: GLP1R-GLP2R dual agonist compound study: gut wet weight; assay type: in vivo
Excerpt: On study day 8, the mice were terminated and the GI tract was removed for determination of the gut wet weight. The gut wet weight results are listed below in Table 12.

[5] = system: lean NMRI mice; test: Acute effect on food intake in lean NMRI mice; assay type: in vivo; conditions: for Cumulative food intake following administration of a single dose: 50 nmol/kg s.c., mean ± S.E.M.
Experimental: All animals were housed in groups of four. The animal room environment were controlled (targeted ranges: temperature 22±2° C.; relative humidity 50±10%; light/dark cycle: 12 hours light, 12 hours dark, lights off from 14.00 to 02.00 hours). The mice had ad libitum access to Altromin (Brogaarden, Denmark) and tap water. Mice arrived 5 days prior to the initiation of the study and were transferred to the HM-2 system. From arrival day no food was provided in the cages thereby forcing the animals to learn to eat from the food channels thus habituating the animals faster to the HM-2 system. Food intake and body weight were measured from day −3 and throughout the study. Food intake data were collected using the HM-2 real-time food intake monitoring system, an online computerized feeding system using digital weighing cells. As the animals were uniquely identified with microchips, each individual mouse was identified by its corresponding microchip upon entry and exit from the food channel. The HM-2 system continuously and in real-time mode monitored feeding activity in two independent channels and recorded the start and finishing time of each meal and the amount of food consumed by each animal within the selected time interval without human intervention. The net food intake was calculated by the HM-2 control unit software (HMLab, MBRose, Faaborg, Denmark).
Doses were administered subcutaneously (dose volume 5 ml/kg), in the lower back region. Food intake was measured up to 68 hours following the dosing of the animals.

[6] = system: lean C57BL/6J mice; test: Sub-acute effect on body weight in lean C57BL/6J mice; assay type: in vivo; conditions: for Body weight change in percent to baseline body weight: 50 nmol/kg BID SC, mean ± S.E.M.
Experimental: Eighteen (18) male C57/BL6J mice obtained from Janvier, France, were used. At the time of experimentation the mice had reached an age of 9 weeks. The mice were acclimatized for one week in their new environment and offered regular chow diet (Altromin 1324, Brogaarden A/S, Denmark) and domestic quality tap water. Animals were housed six per cage during the study, in a light-, temperature-, and humidity-controlled room (12-hour light:12-hour dark cycle, lights on/off at 4 AM/4 PM hour; 22±1° C.; 50±10% relative humidity).
Dosing volume was 5 ml/kg, SC.
The compounds were dissolved in PBS buffer containing 0.1% BSA, pH 7.4. The subcutaneous injections were placed at the lower back. All mice were handled for 3 days prior to experimentation to acclimatize the animals to handling and injections.

[7] = biological target: human GLP-1 receptor (human, UniProt P43220 24-463, limits assumed); test: cell-based or functional assay
[8] = biological target: T1, human GLP-2 receptor (human, UniProt O95838 1-553, limits assumed); test: cell-based or functional assay
T1 sequence (looked up): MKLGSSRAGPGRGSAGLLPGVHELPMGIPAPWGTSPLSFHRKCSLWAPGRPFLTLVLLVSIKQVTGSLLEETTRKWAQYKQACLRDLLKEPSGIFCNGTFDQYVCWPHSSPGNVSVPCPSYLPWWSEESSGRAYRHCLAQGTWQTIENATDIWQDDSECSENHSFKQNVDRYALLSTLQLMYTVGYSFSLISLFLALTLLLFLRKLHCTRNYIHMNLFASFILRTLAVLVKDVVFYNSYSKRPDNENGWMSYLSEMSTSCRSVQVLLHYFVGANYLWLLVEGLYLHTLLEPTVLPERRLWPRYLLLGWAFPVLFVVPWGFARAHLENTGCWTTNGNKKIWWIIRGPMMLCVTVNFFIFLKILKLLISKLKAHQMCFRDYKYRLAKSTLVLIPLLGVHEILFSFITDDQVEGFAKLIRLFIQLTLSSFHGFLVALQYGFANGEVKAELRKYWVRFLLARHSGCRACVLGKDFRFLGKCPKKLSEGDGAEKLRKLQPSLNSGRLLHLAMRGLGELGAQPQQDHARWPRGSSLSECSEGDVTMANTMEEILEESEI

Molecule | Total food intake (g/animal) ([1]; single SC dose 0.3 mg/kg) | Total food intake (g/animal) ([1]; single SC dose 1 mg/kg) | Total food intake (g/animal) ([1]; single SC dose 3 mg/kg) | GLP-1R, EC50 [7] [nM] | GLP-2R, EC50 [8] [nM] | other results
HGDGSFTSELSTYLDNLAARDFINWLIQTKITD-NH2 (C-terminus assumed) [SEQ ID NO 7, R^1-HGDGSFTSELSTYLDNLAARDFINWLIQTKITDR^2] | 1.05 ± 0.41 | 0.47 ± 0.08 | 0.28 ± 0.12 |  |  | food intake after […] compared to vehicle ([1]; single dose 1-3 mg/kg): significantly reduced food intake
R^1-HGDGSFTDELSTYLDALAARDFIAWLIQTKR^2 [SEQ ID NO 3] | 0.76 ± 0.37 | 0.66 ± 0.15 | 0.30 ± 0.08 |  |  | Oral glucose tolerance test AUC, 0-120 min ([2]; Day 7, 3.0 mg/kg BID SC, glucose 2 g/kg oral, mean ± S.E.M.): 503 ± 97 mmol·min/L; blood glucose compared to vehicle and teduglutide ([2]; dosed twice daily for 7 days): significantly reduced fasting blood glucose; Cumulative food intake ([3]; Day 0-7, 3.0 mg/kg BID SC, mean ± S.E.M.): 26.03 ± 2.49 g; cumulative food intake compared to vehicle and teduglutide ([3]; dosed twice daily for 7 days): considerably reduced cumulative food intake; Gut wet weight ([4]; Day 8, 3.0 mg/kg BID SC, mean ± S.E.M.): 3.3 ± 0.2 g; gut wet weight compared to vehicle and teduglutide ([4]; dosed twice daily for 8 days): significantly increased the gut wet weight
R^1-HGDGSFTDELSTYLDNLAARDFIAWLIQTKITDR^2 [SEQ ID NO 5] | 0.69 ± 0.19 | 0.83 ± 0.18 | 0.26 ± 0.08 |  |  | 
R^1-HGDGSFTSELSTYLDALAARDFINWLIQTKR^2 [SEQ ID NO 4] | 0.93 ± 0.06 | 0.79 ± 0.15 | 0.25 ± 0.08 |  |  | 
R^1-H-G-D-G-S-F-T-S-E-L-S-T-Y-[K(C16-yE-)]-DALAARDFIAWLIQTKITDR^2 [SEQ ID NO 23] |  |  |  |  |  | acute food intake compared to vehicle ([5]; 12 and 24 hours after single dose of 50 nmol/kg): significantly reduce acute food intake to an similar extend as liraglutide; Cumulative food intake following administration of a single dose ([5]; 12 h after dosing): 1.82 ± 0.24 grams pr mice; Cumulative food intake following administration of a single dose ([5]; 24 h after dosing): 2.83 ± 0.22 grams pr mice; Cumulative food intake following administration of a single dose ([5]; 60 h after dosing): 11.43 ± 1.97 grams pr mice; food intake compared to vehicle ([5]; 60 hours after single dose of 50 nmol/kg): tends to still have an effect; effect on body weight ([6]; 50 nmol/kg, after two days of administration, sustained up to seven days): significantly reduced the body weight; Body weight change in percent to baseline body weight ([6]; Day 0): 100.0 ± 0.0%; Body weight change in percent to baseline body weight ([6]; Day 2): 90.7 ± 0.8 %; Body weight change in percent to baseline body weight ([6]; Day 5): 89.5 ± 1.8 %; Body weight change in percent to baseline body weight ([6]; Day 7): 90.8 ± 1.4 %
HGDGSFTSELSTYLDALAAK([γGlu-Palmitoyl])DFIAWLIQTKITD [SEQ ID NO 26] |  |  |  | 0.658 | > 100 | 
HGDGSFTSELSK([γGlu-Palmitoyl])YLDALAARDFIAWLIQTKITD [SEQ ID NO 22] |  |  |  | 0.543 | 6.61 | 
HGDGSFK([γGlu-Palmitoyl])SELSTYLDALAARDFIAWLIQTKITD [SEQ ID NO 19] |  |  |  | > 10 | > 100 | 
HGDGSFTSELSTYLDAK([γGlu-Palmitoyl])AARDFIAWLIQTKITD [SEQ ID NO 25] |  |  |  | 0.319 | 1.93 | 
HGDGSFTSELK([γGlu-Palmitoyl])TYLDALAARDFIAWLIQTKITD [SEQ ID NO 21] |  |  |  | > 10 | 4.25 | 
HGDGSFTSELSTYK([γGlu-Palmitoyl])DALAARDFIAWLIQTKITD [SEQ ID NO 23] |  |  |  | 0.169 | 1.06 | 
HGDGSFTSELSTYLDK([γGlu-Palmitoyl])LAARDFIAWLIQTKITD [SEQ ID NO 24] |  |  |  | 0.338 | 5.6 | 
